What was measured:
[1] = biological target: T1, BpSDR (Paraburkholderia phymatum, UniProt B2JGP2); experiment: X-ray crystal structure, […] Å; settings: co-crystallised with 4 mM NAD, pH 4.5-4.6, 14 °C; cofactor-binding domain; acetate from crystallisation solution in substrate site
T1 construct: gene Bphy_1038; residues 1-289, noncleavable N-terminal His6 tag (MAHHHHHHM-ORF), vector pBG1861, E. coli BL21(DE3); SEC monomer or dimer, prototypical SDR dimers by crystal symmetry

[2] = biological target: the molecule itself; experiment: crystal structure; space group C222(1), 1.80 A, three monomers in the asymmetric unit, with NAD and acetate; dimers generated by crystallographic symmetry

Molecule | X-ray crystal structure, 1.80 Å [1] | binding result [2]
NC(=O)c1ccc[n+]([C@@H]2O[C@H](COP(=O)(O)OP(=O)(O)OC[C@H]3O[C@@H](n4cnc5c(N)ncnc54)[C@H](O)[C@@H]3O)[C@@H](O)[C@H]2O)c1 [NAD] | each monomer having an acetate molecule in the substrate-binding domain and a NAD molecule | 
short-chain dehydrogenase/reductase from Burkholderia phymatum (enzyme, short-chain dehydrogenase/reductase, Burkholderia phymatum STM815, UniProt B2JGP2, amino acids 1-289; Crystallised with 4 mM NAD; each monomer holds NAD and an acetate; 278 residues of each monomer are seen in the structure; also called BpSDR; SDR from B. phymatum; source: E. coli BL21(DE3), purified (IMAC, SEC); not shown: His6 (MAHHHHHH, noncleavable hexahistidine fusion tag from the vector …)) MFEFDGKVAVITGAGSGFGRAFAEKGASLGMKLVLADVDEGALARTVDTLRAAGAEVIGVRTDVSNGAQVQALADAALEAFGKVHLLFNNAGVGAGGFLWESSANDWAWVFGVNVMGVAHGVRVFAPIMLGQNEAAHIVNTASVAGLLSPPSMGIYNASKHAVVSLTETLYHDLRNAGGEVGCSLLCPAFVPTGIADAERVRPEALRNEAQPTRSQLAADRQLQRAVRSGKLGATDVATLTFEAIAERRFYILTHPAILATVRLRHEDIELQRNPTDPLSLKPEVKEAR |  | binds

— PMC8805215, “Crystal structure of a short-chain dehydrogenase/reductase from Burkholderia phymatum in complex with NAD” (Acta Crystallographica. Section F, Structural Biology …, 2022)
